Data taken from patent publication US20260347353A1, “INDOLIZINE DERIVATIVES FOR TREATING CANCER” (Antares Therapeutics, Inc., priority 2022, published 2026).

Assays:
[1] = molecular target: T1, p53 Y220C mutant protein (amino acid residues 94-293) (Homo sapiens, UniProt P04637, Y220C); assay: Surface Plasmon Resonance (SPR) assay, p53 Y220C Kd_kinetic; conditions: multi-cycle kinetics, 16 or 20 °C, pH 7.5, 1:1 binding model
T1 construct: p53 Y220C mutant protein (amino acid residues 94-293)
Procedure, shortened: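 Kd from multi-cycle SPR kinetics fitted to a 1:1 model, using 2-fold, 7-point compound series over p53 Y220C (residues 94-293). Flow 30 μL/min, 60 s association, 120 s dissociation, at 16 or 20 °C in 50 mM Tris pH 7.5, 100 mM NaCl, 1 mM DTT, 0.01% Brij35, 0.05% Tween-20, 1% DMSO.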

[2] = molecular target: T1, p53 Y220C mutant protein (amino acid residues 94-293); assay: Thermal Shift Assay (TSA), p53 Y220C dTM; assay type: binding
Procedure: […] The volume is 5 μL/well. The sealed plate is then loaded onto a QuantStudio 7 Flex instrument for melting temperature (TM) measurement. The temperature is increased from 30 °C to 50 °C, at a rate of 0.03 °C/second. Data are fit into a Boltzmann two-state model to determine the TM.

p53 Y220C = p53 Y220C (Homo sapiens, UniProt P04637, Y220C); assay: Luciferase Reporter Assay, p53 Y220C (NCIH1299 cells with inducible p53 Y220C and p53 response element-luciferase); assay type: cell-based; conditions: 6 hour compound treatment, read-out: Luc P53 Y220C AC50
Procedure, shortened: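 NCI-H1299 cells stably carrying a p53 response element-luciferase reporter and Tet-inducible p53 Y220C were induced with 0.5 ug/mL doxycycline for 24 h, then treated with compound for 6 h. Luminescence was read after One-Glo addition. AC50 was derived relative to 10 uM tool compound as positive control.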

NUGC3 cells (p53 Y220C) = assay: Cell Proliferation Assay (CellTiter-Glo), NUGC3 p53 Y220C; assay type: cell-based; conditions: Homo sapiens, NUGC-3, 120 h, 5 days, read-out: CTG NUGC3 P53 Y220C IC50
Procedure, shortened: (§1)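 Seeded at 250–500 cells/well, then compound-treated for 5 days; the NCIH1299 lines carry Tet-One inducible p53 Y220C or R273H transduced lentivirally. Viability by CellTiter-Glo luminescence after 10 min at room temperature; IC50 calculated.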

[3] = tested on: NCIH1299-inducible p53 Y220C cells; assay: Cell Proliferation Assay (CellTiter-Glo), NCIH1299-inducible p53 Y220C; assay type: cell-based; conditions: Homo sapiens, NCI-H1299, 120 h, 5 days, read-out: CTG H1299 P53 Y220C IC50
Procedure, shortened: as §1

[4] = tested on: NCIH1299-inducible p53 R273H cells; assay: Cell Proliferation Assay (CellTiter-Glo), NCIH1299-inducible p53 R273H; assay type: cell-based; conditions: Homo sapiens, NCI-H1299, 120 h, 5 days, read-out: CTG H1299 P53 R273H IC50
Procedure: Inducible p53 Y220C and R273H constructs (Tet-One inducible expression system; Takara) were stably expressed in NCIH1299 cells by lentiviral transduction. NUGC3, A549, BxPC3, T3M4, HuH7, HCC2935, MFE296, NCIH1299, NCIH1299-inducible p53 Y220C, and NCIH1299-inducible p53 R273H cell lines were used for cell proliferation assay. 250-500 cells were seeded in each well of 384 plate and then compounds were dispensed into each well using Echo or Tecan. After 5 days of incubation, equal volume of CellTiter-Glo reagent (G7570; Promega) was added into each well and the plate was incubated at room temperature for 10 minutes with shaking. The luminescent signal was measured by PheraStar microplate reader and IC50 was calculated.

Row | SMILES | Kd [1] | ΔTm at 10 µM ([2]; 10 uM compound) | ΔTm at 100 µM ([2]; 100 μM compound, 3 hours at 20 °C, pH 7.4) | AC50 (p53 Y220C) | IC50 (NUGC3 cells (p53 Y220C)) | IC50 [3] | IC50 [4]
1 | CN1CC[C@@H](Nc2cccn3c(SC(F)(F)F)c(-c4noc(CNC(=O)C5CC5)n4)nc23)[C@@H](F)C1 [Example 1, N-{[3-(8-{[(3S,4R)-3-fluoro-1-methylpiperidin-4-yl]amino}-3-[(trifluoromethyl)sulfanyl]imidazo[1,2-a]pyridin-2-yl)-1,2,4-oxadiazol-5-yl]methyl}cyclopropanecarboxamide] | 10 to 100 nM | 5 to 10 °C | 5 to 10 °C | ≥ 3000 nM | ≥ 3000 nM | ≥ 3000 nM | ≥ 10000 nM
2 | CN1CC[C@@H](Nc2cccn3c(SC(F)(F)F)c(-c4noc(CNC(=O)c5ccc6c(c5)NC(=O)CN6C)n4)cc23)[C@@H](F)C1 [Example 23, N-{[3-(8-{[(3S,4R)-3-fluoro-1-methylpiperidin-4-yl]amino}-3-[(trifluoromethyl)sulfanyl]indolizin-2-yl)-1,2,4-oxadiazol-5-yl]methyl}-1-methyl-3-oxo-2,4-dihydroquinoxaline-6-carboxamide] | < 10 nM | – | – | < 750 nM | < 750 nM | < 750 nM | –
3 | COc1ccc2n[nH]c(CC(=O)NCc3nc(-c4cc5c(N[C@@H]6CCN(C)C[C@@H]6F)cccn5c4SC(F)(F)F)no3)c2c1 [Example 9, N-{[3-(8-{[(3S,4R)-3-fluoro-1-methylpiperidin-4-yl]amino}-3-[(trifluoromethyl)sulfanyl]indolizin-2-yl)-1,2,4-oxadiazol-5-yl]methyl}-2-(5-methoxy-1H-indazol-3-yl)acetamide] | 100 to 1000 nM | – | – | ≥ 3000 nM | 1500 to 3000 nM | 1500 to 3000 nM | –
4 | CN1CC[C@@H](Nc2cccn3c(SC(F)(F)F)c(-c4noc(CNC(=O)c5ccc6c(c5)NC(=O)C6)n4)cc23)[C@@H](F)C1 [Example 16, N-{[3-(8-{[(3S,4R)-3-fluoro-1-methylpiperidin-4-yl]amino}-3-[(trifluoromethyl)sulfanyl]indolizin-2-yl)-1,2,4-oxadiazol-5-yl]methyl}-2-oxo-1,3-dihydroindole-6-carboxamide] | < 10 nM | – | – | 750 to 1500 nM | < 750 nM | 750 to 1500 nM | –

More lines, main results first:

Row | Kd [1] | ΔTm at 10 µM ([2]; 10 uM compound) | ΔTm at 100 µM ([2]; 100 μM compound, 3 hours at 20 °C, pH 7.4) | AC50 (p53 Y220C) | SMILES | IC50 (NUGC3 cells (p53 Y220C)) | IC50 [3] | IC50 [4]
5 | < 10 nM | – | – | < 750 nM | CN1CC[C@@H](Nc2cccn3c(SC(F)(F)F)c(-c4noc(CNC(=O)C5(O)CC5)n4)cc23)[C@@H](F)C1 [Example 24, N-{[3-(8-{[(3S,4R)-3-fluoro-1-methylpiperidin-4-yl]amino}-3-[(trifluoromethyl)sulfanyl]indolizin-2-yl)-1,2,4-oxadiazol-5-yl]methyl}-1-hydroxycyclopropane-1-carboxamide] | 750 to 1500 nM | 750 to 1500 nM | –
6 | < 10 nM | – | – | 1500 to 3000 nM | C[C@@H](O)CC(=O)NCc1nc(-c2cc3c(N[C@@H]4CCN(C)C[C@@H]4F)cccn3c2SC(F)(F)F)no1 [Example 63, (3R)-N-{[3-(8-{[(3S,4R)-3-fluoro-1-methylpiperidin-4-yl]amino}-3-[(trifluoromethyl)sulfanyl]indolizin-2-yl)-1,2,4-oxadiazol-5-yl]methyl}-3-hydroxybutanamide] | 1500 to 3000 nM | ≥ 3000 nM | –
7 | < 10 nM | – | – | < 750 nM | CN1CC[C@@H](Nc2cccn3c(SC(F)(F)F)c(-c4noc(CNC(=O)c5sccc5N)n4)cc23)[C@@H](F)C1 [Example 33, 3-amino-N-{[3-(8-{[(3S,4R)-3-fluoro-1-methylpiperidin-4-yl]amino}-3-[(trifluoromethyl)sulfanyl]indolizin-2-yl)-1,2,4-oxadiazol-5-yl]methyl}thiophene-2-carboxamide] | < 750 nM | < 750 nM | –
8 | < 10 nM | – | – | < 750 nM | CN1CC[C@@H](Nc2cccn3c(SC(F)(F)F)c(-c4noc(CNC(=O)C#CC5(C)CC5)n4)cc23)[C@@H](F)C1 [Example 31, N-{[3-(8-{[(3S,4R)-3-fluoro-1-methylpiperidin-4-yl]amino}-3-[(trifluoromethyl)sulfanyl]indolizin-2-yl)-1,2,4-oxadiazol-5-yl]methyl}-3-(1-methylcyclopropyl)prop-2-ynamide] | < 750 nM | < 750 nM | –
